Experimental data from patent US6120765A, “Urokinase plasminogen activator fragments” (Shiseido Co. Ltd., priority 1993, dated 2000).
Where no end group is shown, it is not given here.

Tested on: Primary human keratinocytes
Test: Mitogenesis assay (3H-thymidine incorporation, DNA synthesis) in keratinocytes
Assay type: cell-based
Conditions: for 3H-thymidine uptake (mitogenesis) of Lys23-substituted 9-mers versus controls: keratinocytes, negative control no peptide, positive control K-GFD
Experimental: FIG. 1 is a bar graph which represents the effect of various uPA peptides on DNA synthesis in keratinocytes. Various concentrations of GFD peptides were tested in order to compare the mitogenic activity. After 24 h incubation with a peptide and 3H-thymidine, incorporated radioactivity was measured as described herein. Five concentrations were used for each peptide. For a given peptide the uppermost bar of the five represents 0.1 μM, the next lower bar 0.33 μM, the next lower bar 1 μM, the next lower bar 3.3 μM, and the lowest bar, 10 μM.
Mitogenesis Assay The effect of a peptide on mitogenesis was determined as a function of DNA synthesis as follows. Peptides (in phosphate buffered saline (PBS)) were added to the monolayers (grown as described herein) to a final concentration of either 0.1 μM, 0.33 μM, 1.0 μM, 3.3 μM, or 10 μM. 5 μL of ^3 H-thymidine (10 μCi/ml; Amersham, Arlington Heights, Ill.) in 150 μL KGM was added to the cultures concurrent with the peptides, and cells were harvested and lysed after 24 hours at 37° C. in distilled H2 O using a Tomtec cell harvester, and fixed with 70% ethanol. The lysed cells were then transferred to a nylon filter (Amersham, Arlington Heights, Ill.), Beta plate scintillation fluid was added (LKB), and radioactivity was measured using a Wallac 1205 beta plate counter. Control samples, incubated in the presence of phosphate-buffered saline (PBS) and ^3 H-thymidine gave control levels of radioactivity of approximately 400 cpm.
Cell Culture Primary human keratinocytes (Clonetics, Calif.) were cultured in 96-well plates (Corning, N.Y.) in serum-free medium (KGM medium, Clonetics) to 70-80% confluency on a monolayer culture at 37° C. in 5% C02.

Sequence	3H-thymidine uptake (mitogenesis) of Lys23-substituted 9-mers versus controls	concentration giving maximum level of mitogenic activity (24 h, tested 0.1-10 μM)	also measured
SNAYFSDIH [A-GFD]	little different from negative control cells	–	–
SNEYFSDIH [E-GFD]	inhibited mitogenesis	–	–
SNKYFSNIH [9-mer, K-GFD printed in b183 with Asp instead of Asn]	increased uptake as compared with untreated cells	1 µM	lowest concentration effective in stimulating mitogenesis (24 h, tested 0.1-10 μM): 0.33 µM
SNRYFSDIH [R-GFD]	greatly increased	–	–
TCVSNKYFSNIH [12-mer]	–	–	effect on keratinocyte stimulation (at other concentrations than 1 μM (0.1, 0.33, 3.3, 10 μM)): little, if any, effect; mitogenic activity (3H-thymidine incorporation) (only at 1 μM, 24 h): demonstrated mitogenic activity
TCVSNKYFSNIHWCN [15-mer]	–	3.3 µM	–
